# Reference: patent publication US20260335282A1, “NOVEL 3-ARYLIDENE-2-INDOLINONE DERIVATIVES FOR THERAPEUTIC USE” (ISTANBUL UNIVERSITESI REKTORLUGU, priority 2022, published 2026)
# pIC50: −log10 of the molar value. Read-outs that look alike come from different tables or passages of the source.
# Columns and labels:
# Assay type in all cases: cell-based, human
# HUVEC cells = experiment: MTT cytotoxicity, healthy cells HUVEC; conditions: for pIC50: MTT, no * mark (incubation time not specified)
# Description: (§1) The cytotoxicity, general tyrosine kinase inhibitory effects and cell death (apoptosis/necrosis) assays of 1-benzyl-3-(1H-indol-3-ylmethylidene)-1,3-dihydro-2H-indol-2-one derivatives (Formula 5) of the present invention are studied by the following methods. […] HUVEC (human umbilical vein endothelial cell), MCF-10F (human breast epithelial cell) and Beas2b (human lung bronchial epithelial cell) cell lines have been used as healthy control cells in MTT experiments.
# (§2) Beas2b (human lung bronchiole epithelial cell) and HEK293 (renal tubule epithelium) cells used as normal cell lines were cultured in RPMI medium, and HUVEC (human umbilical cord endothelial cells) and MCF-10F (human breast epithelial cell) cells are cultured in DMEM medium containing 100 µg/ml penicillin/streptomycin. The cells, which covered 70% of the culture flask, are washed with phosphate buffer and then removed from the surface of the flask by application of trypsin-ethylenediamine tetraacetic acid (Trypsin-EDTA; 0.25%) solution, passaged, counted and seeded on appropriate plates before each experiment. Cells are treated with a total of 45 2-indolinone compounds (5) at concentrations of 0.1, 1, 5 and 10 μM. Stock compounds are prepared in 1 ml dimethylsulfoxide (DMSO) and 4 different dilutions were prepared with medium and performed to the cells. Control group cells are treated with DMSO at a similar concentration to the experimental groups.
# (§3) MTT (3-(4,5-dimethylthiazol-2-yl)-2,5-diphenyl-2H-tetrazolium bromide) colorimetric assay provides quantitation of viable cells with ongoing mitochondrial activity in culture medium. According to the standard procedure in cell culture conditions, cells are maintained in RPMI-1640 and DMEM culture media containing 10% FBS and 1% penicillin/streptomycin. The trypan blue test is used for cell counts.
# (§4) The effects of 45 2-indolinone compounds (5) on cell viability in all cancer cell lines are investigated by MTT assay. Cells are seeded in a 96-well flat bottom plate with 5000 cells in each well and 2-indolinone compounds (5) at concentrations of 0.1, 1, 5 and 10 μM are performed to the cells the next day. After 48 and/or 72 hours following treatment with 2-indolinone compounds, 50 μl of the supernatant is slowly discarded (as it was acid medium) and MTT at a concentration of 5 mg/ml is added to each well in a volume of 10 μl. After incubation for 4 hours, the formazan crystals formed in the wells are dissolved by adding 100 μl DMSO and the optical density is read at 570 nm test wavelength and 630 nm reference wavelength. Cell viability is expressed as % cell viability by comparing the absorbance of control and test wells. IC50 value is calculated from the dose-response curves prepared for each compound. In addition, the possible DMSO effect is eliminated by preparing negative control wells compatible with the amount of DMSO contained in the compounds. To understand the reaction of the compounds with MTT, cell-free (MTT+compounds) negative controls are prepared at the concentrations used (Mosmann, 1983). […] The absorbance values obtained are compared to the control and statistically evaluated by unpaired t-test using “Graphpad Prism 5.04” software. “P<0.05” is accepted as significant. When evaluating cytotoxic effects, the present inventors aim for the inventive compounds to be effective in cancer cells and ineffective in healthy cells. The inventive compounds have also been compared with sunitinib, one of the reference chemotherapy drugs currently used in treatment.
# (§5) Among the compounds of the present invention, those that killed cancer cells by at least 50% (p<0.05) are selected and tested whether a 10-fold concentration of the M concentration at the IC50 value is toxic to normal healthy cells.
# MIAPaCa-2 cells = experiment: MTT cytotoxicity, pancreas cancer cells MIAPaCa-2; conditions: MTT
# Description: as §1, §2, §3, §4
# MCF-10F/Beas2b cells = experiment: MTT cytotoxicity, healthy cells MCF-10F/Beas2b; conditions: for pIC50: MTT
# Description: as §1, §2, §3, §4, §5
# MDA-MB-231 cells = experiment: MTT cytotoxicity, breast cancer cells MDA-MB-231; conditions: read-out: IC50, MDA-MB-231 (breast), MTT
# Description: as §1, §2, §3, §4, §5
# CAKI-1 cells = experiment: MTT cytotoxicity, kidney cancer cells CAKI-1
# Description: as §1, §2, §3, §4, §5
# A549 cells = experiment: MTT cytotoxicity, lung cancer cells A549; conditions: no * mark (incubation time not specified)
# Description: as §1, §2, §3, §4, §5
# HT-29 cells = experiment: MTT cytotoxicity, colon cancer cells HT-29; conditions: MTT, no * mark (incubation time not specified)
# Description: as §1, §2, §3, §4
# A498 cells = experiment: MTT cytotoxicity, kidney cancer cells A498; conditions: MTT
# Description: as §1, §2, §3, §4, §5
# MCF-7 cells = experiment: MTT cytotoxicity, breast cancer cells MCF-7; conditions: MTT
# Description: as §1, §2, §3, §4, §5
# HCT-116 cells = experiment: MTT cytotoxicity, colon cancer cells HCT-116; conditions: no * mark (incubation time not specified)
# Description: as §1, §2, §3, §4
# [1] = no * mark (incubation time not specified)
# [2] = no * mark (incubation time not given)
# [3] = *: effective 72 hours after incubation
SMILES,pIC50 (HUVEC cells),pIC50 (MIAPaCa-2 cells; [1]),pIC50 (MCF-10F/Beas2b cells; [1]),pIC50 (MDA-MB-231 cells; [2]),pIC50 (CAKI-1 cells; [1]),pIC50 (A549 cells),pIC50 (HT-29 cells),pIC50 (A498 cells; [3]),pIC50 (MCF-7 cells; [1]),pIC50 (HCT-116 cells),"Selectivite Index, HUVEC (Table 2) (HUVEC cells; HUVEC vs colon or pancreas cancer cells, cancer line not given)","Selectivite Index, MCF-10F/Beas2b (Table 2) (MCF-10F/Beas2b cells; MCF-10F/Beas2b vs colon or pancreas cancer cells, cancer line not given)",pIC50 (MDA-MB-231 cells; [3]),pIC50 (CAKI-1 cells; [3]),pIC50 (MCF-7 cells; [3]),pIC50 (A498 cells; [1]),pIC50 (MCF-10F/Beas2b cells; [3]),pIC50 (MIAPaCa-2 cells; [3])
Cc1ccc(CN2C(=O)/C(=C\c3c[nH]c4ccccc34)c3cccc(F)c32)cc1 [35C],5.79,6.21,5.49,< 5.00,5.35,5.23,6.00,5.51,< 5.00,6.64,–,–,–,–,–,–,–,–
O=C1/C(=C\c2c[nH]c3ccccc23)c2cc(OC(F)(F)F)ccc2N1Cc1ccc(Cl)cc1 [5C],5.57,< 5.00,5.46,–,–,5.53,6.36,5.65,–,5.71,6.18,7.86,5.24,5.16,5.42,–,–,–
Cc1ccc(CN2C(=O)/C(=C\c3c[nH]c4ccccc34)c3cc(Cl)ccc32)cc1 [Y22],5.63,6.31,5.96,< 5.00,< 5.00,< 5.00,< 5.00,–,< 5.00,5.63,–,–,–,–,–,< 5.00,–,–
Cc1cccc(CN2C(=O)/C(=C\c3c[nH]c4ccccc34)c3cc(C)ccc32)c1 [48C],5.97,5.69,5.47,< 5.00,–,5.52,5.84,6.14,–,6.22,–,–,–,5.46,5.40,–,5.47,–
Cc1cccc(CN2C(=O)/C(=C\c3c[nH]c4ccccc34)c3cc(F)ccc32)c1 [13C],5.65,–,5.58,< 5.00,< 5.00,5.46,< 5.00,–,< 5.00,< 5.00,–,–,–,–,–,5.58,–,5.82
O=C1/C(=C\c2c[nH]c3ccccc23)c2cc(OC(F)(F)F)ccc2N1Cc1ccc(F)cc1 [3C],5.37,–,5.53,5.64,5.43,5.37,5.86,5.12,5.30,5.24,–,–,–,–,–,–,–,6.02
O=C1/C(=C\c2c[nH]c3ccccc23)c2cc(Cl)ccc2N1Cc1ccc(Cl)cc1 [19C],5.73,< 5.00,5.73,< 5.00,< 5.00,5.26,< 5.00,–,5.50,< 5.00,–,–,–,–,–,6.29,–,–
